Results as given in article PMC10458471, “Electrophysiological Assessment of Newly Synthesized 2,3-Benzodiazepine Derivatives for Inhibiting the AMPA Receptor Channel” (Molecules, 2023).
Where two headings read alike, the source gives them in different places.

Experiments:
GluA2/3 = target: T1, GluA2/3 (Rattus norvegicus, UniProt P19491+P19492); assay: Whole-cell patch-clamp recording of heteromeric GluA2/3 AMPAR expressed in HEK293T cells; format: cell-based; settings: for Amplitude with compound: 10 mM glutamate + 16 µM compound, mean±SEM; for Amplitude with compound / A/AI (current amplitude ratio without/with compound) / t deact (weighted deactivation time constant) / t des (weighted desensitization time constant) / Amplitude, applying glutamate alone after compound: n=8; for A/AI (current amplitude ratio without/with compound): 10 mM glutamate; for t deact (weighted deactivation time constant): 1 ms 10 mM glutamate + 16 µM compound; for t des (weighted desensitization time constant): 500 ms 10 mM glutamate + 16 µM compound; for Amplitude, applying glutamate alone after compound: washout/recovery
T1 construct: expressed in transfected cells; host or cells: HEK293T
T1 sequence (P19491 22-883 isoform P19491-2 limits assumed): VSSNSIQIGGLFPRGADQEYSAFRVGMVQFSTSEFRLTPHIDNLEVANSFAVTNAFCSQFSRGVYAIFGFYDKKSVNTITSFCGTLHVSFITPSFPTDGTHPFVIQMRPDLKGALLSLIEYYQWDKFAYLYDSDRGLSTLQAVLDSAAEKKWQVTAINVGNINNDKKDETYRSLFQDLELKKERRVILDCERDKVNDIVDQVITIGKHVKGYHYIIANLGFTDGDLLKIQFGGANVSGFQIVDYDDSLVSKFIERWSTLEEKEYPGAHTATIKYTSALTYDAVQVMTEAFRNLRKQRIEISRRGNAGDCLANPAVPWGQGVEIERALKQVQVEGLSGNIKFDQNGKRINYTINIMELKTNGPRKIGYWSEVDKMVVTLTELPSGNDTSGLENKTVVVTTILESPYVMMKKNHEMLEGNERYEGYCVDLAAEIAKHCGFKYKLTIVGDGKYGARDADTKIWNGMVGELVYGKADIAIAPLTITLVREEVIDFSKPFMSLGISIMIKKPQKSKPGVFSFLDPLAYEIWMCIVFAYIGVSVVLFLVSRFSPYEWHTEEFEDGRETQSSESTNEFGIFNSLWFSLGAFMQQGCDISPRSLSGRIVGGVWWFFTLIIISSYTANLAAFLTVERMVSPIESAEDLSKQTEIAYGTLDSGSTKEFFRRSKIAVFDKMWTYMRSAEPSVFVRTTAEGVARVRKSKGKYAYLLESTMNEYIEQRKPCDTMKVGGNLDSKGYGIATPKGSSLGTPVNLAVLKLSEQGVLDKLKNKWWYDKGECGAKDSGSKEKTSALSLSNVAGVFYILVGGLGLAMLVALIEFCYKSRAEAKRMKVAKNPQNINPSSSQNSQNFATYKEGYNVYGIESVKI
T1 sequence (P19492 23-888 isoform P19492-2 limits assumed): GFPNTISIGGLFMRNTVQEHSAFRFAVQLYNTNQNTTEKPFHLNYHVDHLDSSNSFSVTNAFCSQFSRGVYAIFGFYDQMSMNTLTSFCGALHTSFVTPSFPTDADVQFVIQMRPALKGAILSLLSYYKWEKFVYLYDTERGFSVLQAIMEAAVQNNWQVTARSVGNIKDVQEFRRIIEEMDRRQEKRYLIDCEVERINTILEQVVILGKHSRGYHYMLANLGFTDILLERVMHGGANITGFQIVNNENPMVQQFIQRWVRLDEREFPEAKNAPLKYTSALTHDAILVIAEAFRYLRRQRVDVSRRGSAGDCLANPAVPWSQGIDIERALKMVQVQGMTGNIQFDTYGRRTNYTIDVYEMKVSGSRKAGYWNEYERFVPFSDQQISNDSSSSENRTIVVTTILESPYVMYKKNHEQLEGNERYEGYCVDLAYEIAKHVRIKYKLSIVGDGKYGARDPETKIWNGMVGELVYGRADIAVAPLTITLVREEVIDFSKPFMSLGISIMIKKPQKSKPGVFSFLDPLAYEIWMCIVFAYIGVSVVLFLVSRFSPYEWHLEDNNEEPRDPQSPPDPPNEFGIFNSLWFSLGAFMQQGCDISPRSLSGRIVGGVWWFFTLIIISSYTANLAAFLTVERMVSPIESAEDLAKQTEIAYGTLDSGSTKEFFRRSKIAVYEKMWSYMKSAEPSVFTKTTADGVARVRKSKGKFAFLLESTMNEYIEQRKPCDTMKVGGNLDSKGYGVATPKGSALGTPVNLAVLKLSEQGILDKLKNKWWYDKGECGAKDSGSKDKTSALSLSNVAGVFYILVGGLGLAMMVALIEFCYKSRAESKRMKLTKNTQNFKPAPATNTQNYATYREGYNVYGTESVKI
Method: (§1) For the DNA preparation, the QIAGEN Plasmid Mini Kit was used to prepare up to 20 µg of high-copy plasmid DNA [30]. All AMPAR subunits utilized in this study included the flip isoform received from S. F. Heinemann (Salk Institute, La Jolla, CA, USA) and sub-cloned in pRK for expression in Human Embryonic Kidney Cells 293 (HEK293T). The human embryonic kidney (HEK293T) cells were obtained from Sigma, Taufkirchen, Germany, and we only used the HEK293T cell line due to their ease of growth and transfection and wide utilization in cell culture. For the transfection, we used the constructs GluA1, GluA2, GluA2/3, and GluA1/2, along with the GFP-expressing construct, as described in our previous work. The transfection reagents utilized were jetPRIME (Polyplus: New York, NY, USA) or Lipofectamine 2000 (Invitrogen; San Diego, CA, USA). The highly fluorescent cells were identified and selected for recording. The selected cells were seeded in Dulbecco Modified Eagle Medium (DMEM) (Sigma, Roedermark, Germany) containing 10% FBS, 0.1 mg/mL streptomycin, and 1 mM sodium pyruvate (Biological Industries; Beit-Haemek, Israel). The cells were incubated at 37 °C with 5% CO2 added to the medium and subcultured twice a week until they reached passage #20. Following a day and a half, the cells were replated on coverslips covered with Laminin (1 mg/mL; Sigma, Roedermark, Germany) for electrophysiological recordings. Our previous work has detailed the DNA preparation, cDNA transient transfection, and cell culture of HEK293T [30, 31, 32, 33].
(§2) After that, a patch was placed in front of a rapid perfusion system comprised of a theta tube flow pipe mounted on a piezoelectric translator that was used to wash the cell continuously from one barrel while the other supplied the compound of interest to the cell. Recordings were conducted 36–48 h after transfection at 22 °C, with a membrane potential of −60 mV. Currents were amplified using an integrated patch amplifier (IPA, Sutter Instruments, Novato, CA, USA), filtered at 2 kHz, and digitized at 10 kHz using SutterPatch Software v. 1.1.1 [46]. […] The extracellular medium contained (in mM): 150 NaCl, 2.8 KCl, 0.5 MgCl2, 2 CaCl2, and 10 HEPES, pH 7.4 adjusted with NaOH. The holding potential was typically −60 mV. The sample size was determined to be eight viable cells to calculate the mean inhibition of the derivative of interest. The solution exchange time (10–90% to peak) was estimated at […] using open-tip control at the end of a recording. Inhibition was calculated by comparing the current observed when the cell was supplied with glutamate alone and when the same cell was supplied with both glutamate and the 2,3-BDZ compounds. The initial tube containing only glutamate was reintroduced to the cell to ensure cellular safety and authenticate the antagonist’s findings. This step ensured that the glutamate-induced current observed before the administration of the antagonist was nearly indistinguishable from the current observed after administration.
(§3) The experiment served two purposes: first, determining the whole-cell current amplitude ratio in the absence and presence of the compounds (A/AI) to derive a constant inhibitory value independent of the rate measurement. Second, as an independent control method, a fast exchange solution flow methodology was employed using piezoelectric actuators, providing the fastest exchange solution with open-tip current rise times in the 100–300 μs range to assess the amplitude of the whole-cell current. Detailed data analysis of this process is provided in the supporting information (Tables S1–S4).
(§4) The data acquired were analyzed using Igor Pro7 (Wave Metrics, Inc., Portland, OR, USA). Receptor desensitization (τw des) and deactivation rates were estimated by fitting the current decay starting from 95% of the peak to the baseline current using a double exponential formulation. […]

GluA1 = target: T2, GluA1 (Rattus norvegicus, UniProt P19490); assay: Whole-cell patch-clamp recording of homomeric GluA1 AMPAR expressed in HEK293T cells; format: cell-based; settings: for Amplitude with compound: 10 mM glutamate + 16 µM compound, mean±SEM; for Amplitude with compound / A/AI (current amplitude ratio without/with compound) / t deact (weighted deactivation time constant) / t des (weighted desensitization time constant) / Amplitude, applying glutamate alone after compound: n=8; for A/AI (current amplitude ratio without/with compound): 10 mM glutamate; for t deact (weighted deactivation time constant): 1 ms 10 mM glutamate + 16 µM compound; for t des (weighted desensitization time constant): 500 ms 10 mM glutamate + 16 µM compound; for Amplitude, applying glutamate alone after compound: washout/recovery
T2 construct: expressed in transfected cells; host or cells: HEK293T
T2 sequence (P19490 19-907 isoform P19490-2 limits assumed): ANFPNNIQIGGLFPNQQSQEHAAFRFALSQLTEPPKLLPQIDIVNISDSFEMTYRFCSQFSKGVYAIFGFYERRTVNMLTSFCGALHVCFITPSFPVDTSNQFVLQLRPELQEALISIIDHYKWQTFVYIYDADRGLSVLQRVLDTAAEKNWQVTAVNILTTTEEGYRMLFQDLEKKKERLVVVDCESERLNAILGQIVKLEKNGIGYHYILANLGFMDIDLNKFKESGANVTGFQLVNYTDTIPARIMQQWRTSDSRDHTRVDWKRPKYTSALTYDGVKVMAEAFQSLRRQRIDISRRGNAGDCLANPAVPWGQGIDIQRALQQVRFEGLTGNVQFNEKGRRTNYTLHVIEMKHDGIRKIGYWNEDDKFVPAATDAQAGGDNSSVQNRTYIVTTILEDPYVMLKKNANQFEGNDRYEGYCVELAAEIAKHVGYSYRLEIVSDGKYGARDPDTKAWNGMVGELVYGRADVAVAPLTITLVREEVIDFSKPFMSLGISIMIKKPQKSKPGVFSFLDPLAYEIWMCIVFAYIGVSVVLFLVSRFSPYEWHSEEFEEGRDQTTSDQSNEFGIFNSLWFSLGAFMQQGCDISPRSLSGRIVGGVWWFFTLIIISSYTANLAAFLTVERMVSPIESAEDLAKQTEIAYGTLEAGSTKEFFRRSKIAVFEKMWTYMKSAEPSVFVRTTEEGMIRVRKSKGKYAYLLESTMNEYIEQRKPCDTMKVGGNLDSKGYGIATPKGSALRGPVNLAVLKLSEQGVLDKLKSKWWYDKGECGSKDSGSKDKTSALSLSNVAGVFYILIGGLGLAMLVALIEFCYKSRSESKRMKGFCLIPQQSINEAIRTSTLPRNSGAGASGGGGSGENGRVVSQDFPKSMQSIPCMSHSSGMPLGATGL
Method: as §1, §2, §3, §4

[1] = Solubility observation during synthesis/characterisation; format: physicochemical; settings: qualitative, NMR in DMSO-d6 could not be run
Method: The synthesis of target compounds is carried out according to the sequence of reactions detailed in Scheme 1. SnCl4-catalyzed Friedel-Craft acylation of ethyl 3,4-methylenedioxy phenylacetate 1 with either 2-fluoro-4-nitrobezoylchloride 2a or 3-methoxy-4-nitrobenzoyl chloride 2b in dry CH2Cl2 yields the required ketoester intermediates 3a and 3b in 40% and 48% yields, respectively. […] Acetic acid promoted a cascade reaction (imine formation followed by cyclization) of ethyl 4,5-(methylenedioxy)-2-[…] with hydrazine hydrate in ethanol afforded 2,3-BZD-4 in a 33% yield. High yield and purity of 2,3-BZD-1 were achieved via Pd-catalyzed hydrogenation of the nitro group in 2,3-BZD-4 in methanol. The generated compounds have physical and spectral (1H-NMR) data consistent with their proposed structures.
5% Pd/C (50 mg) was added to a solution containing 1-(2-floro-4-nitrophenyl)-7,8-(methylenedioxy)-3,5-dihydro-4H-2,3-benzodiazepin-4-one (2,3-BDZ-3) (64.80 mg, 0.19 mmol) in methanol (5 mL) and formic acid (2 mL). After 48 h of stirring at ambient temperature in a hydrogen atmosphere, the Pd/C was filtered out, and the solvent was removed under pressure. The resultant residue was washed with methanol and then with diethyl ether. […]

AMPA receptor subunits = assay: Whole-cell patch-clamp recording, statements over all tested AMPAR subunits (GluA1, GluA1/2, GluA2, GluA2/3) in HEK293T cells; format: cell-based; settings: 16 µM compound; for Effect on deactivation rate of the AMPAR subunits examined: 1 ms glutamate
Method: as §1, §2, §3, §4

GluA2 = target: T3, GluA2 (Rattus norvegicus, UniProt P19491); assay: Whole-cell patch-clamp recording of homomeric GluA2 AMPAR expressed in HEK293T cells; format: cell-based; settings: for Amplitude with compound: 10 mM glutamate + 16 µM compound, mean±SEM; for Amplitude with compound / A/AI (current amplitude ratio without/with compound) / t deact (weighted deactivation time constant) / t des (weighted desensitization time constant) / Amplitude, applying glutamate alone after compound: n=8; for A/AI (current amplitude ratio without/with compound): 10 mM glutamate; for t deact (weighted deactivation time constant): 1 ms 10 mM glutamate + 16 µM compound; for t des (weighted desensitization time constant): 500 ms 10 mM glutamate + 16 µM compound; for Amplitude, applying glutamate alone after compound: washout/recovery
T3 construct: expressed in transfected cells; host or cells: HEK293T
T3 sequence (P19491 22-883 isoform P19491-2 limits assumed): as the sequence (P19491 22-883 isoform P19491-2 limits assumed) above
Method: as §1, §2, §3, §4

GluA1/2 = target: T4, GluA1/2 (Rattus norvegicus, UniProt P19490+P19491); assay: Whole-cell patch-clamp recording of heteromeric GluA1/2 AMPAR expressed in HEK293T cells; format: cell-based; settings: for Amplitude with compound: 10 mM glutamate + 16 µM compound, mean±SEM; for Amplitude with compound / A/AI (current amplitude ratio without/with compound) / t deact (weighted deactivation time constant) / t des (weighted desensitization time constant) / Amplitude, applying glutamate alone after compound: n=8; for A/AI (current amplitude ratio without/with compound): 10 mM glutamate; for t deact (weighted deactivation time constant): 1 ms 10 mM glutamate + 16 µM compound; for t des (weighted desensitization time constant): 500 ms 10 mM glutamate + 16 µM compound; for Amplitude, applying glutamate alone after compound: washout/recovery
T4 construct: expressed in transfected cells; host or cells: HEK293T
T4 sequence (P19490 19-907 isoform P19490-2 limits assumed): as the sequence (P19490 19-907 isoform P19490-2 limits assumed) above
T4 sequence (P19491 22-883 isoform P19491-2 limits assumed): as the sequence (P19491 22-883 isoform P19491-2 limits assumed) above
Method: as §1, §2, §3, §4

[2] = 16 µM compound, 500 ms glutamate
[3] = log of IC50, read-out: Log IC50 (converted)
[4] = normalized peak current, -60 mV, pH 7.4, 22 °C, read-out: IC50

Compound | Amplitude with compound (GluA2/3; -60 mV, pH 7.4, 22 °C) [pA] | A/AI (current amplitude ratio without/with compound) (GluA2/3; 16 µM compound) | t deact (weighted deactivation time constant) (GluA2/3) [ms] | t des (weighted desensitization time constant) (GluA2/3) [ms] | IC50 (GluA2/3; [3]) [µM] | IC50 (GluA2/3; [4]) [µM] | Amplitude, applying glutamate alone after compound (GluA2/3) [pA] | Amplitude with compound (GluA1; -60 mV, pH 7.4, 22 °C) [pA] | A/AI (current amplitude ratio without/with compound) (GluA1; 16 µM compound) | t deact (weighted deactivation time constant) (GluA1) [ms] | t des (weighted desensitization time constant) (GluA1) [ms] | IC50 (GluA1; [3]) [µM] | IC50 (GluA1; [4]) [µM] | Amplitude, applying glutamate alone after compound (GluA1) [pA] | Reduction in AMPAR subunit currents (AMPA receptor subunits) | Effect on deactivation rate of the AMPAR subunits examined (AMPA receptor subunits) | Amplitude with compound (GluA2; -60 mV, pH 7.4, 22 °C) [pA] | A/AI (current amplitude ratio without/with compound) (GluA2; 16 µM compound) | t deact (weighted deactivation time constant) (GluA2) [ms] | t des (weighted desensitization time constant) (GluA2) [ms] | also measured
Nc1ccc(C2=NNC(=O)Cc3cc4c(cc32)OCO4)c(F)c1 [2,3-BDZ-1, 1-(4-Amino-2-fluorophenyl)-7,8-(methylenedioxy)-3,5-dihydro-4H-2,3-benzodiazepin-4-one] | 49±4 | 12.09±1.0 | 8.1 ± 0.7 | 0.8 ± 0.08 | 3.09 | 3.09 | 589±33 | 85±7.0 | 11.08±1.0 | 6.3 ± 0.4 | 1.1 ± 0.1 | 3.24 | 3.26 | 935±39 | 11–12 fold | almost triples | 108±9.0 | 12.31±1.0 | 8.7 ± 0.6 | 0.6 ± 0.05 | Reduction of desensitization rate (GluA2/3; [2]): 3–4 fold; Reduction of desensitization rate (GluA1; [2]): ~2 fold; Solubility (observation) [1]: low solubility; Solubility (observation) ([1]; listed as 2,3-BZD-1): highly insoluble; Reduction of desensitization rate (GluA2; [2]): 4–5 fold; IC50 (GluA2; [3]): 3.02 µM; IC50 (GluA2; [4]): 3.02 µM; Amplitude, applying glutamate alone after compound (GluA2): 1322±33 pA; Reduction of desensitization rate (GluA1/2; [2]): ~2 fold; Amplitude with compound (GluA1/2; -60 mV, pH 7.4, 22 °C): 51±7.0 pA; A/AI (current amplitude ratio without/with compound) (GluA1/2; 16 µM compound): 11.21±1.0; t deact (weighted deactivation time constant) (GluA1/2): 6.7 ± 0.6 ms; t des (weighted desensitization time constant) (GluA1/2): 2.7 ± 0.2 ms; IC50 (GluA1/2; [3]): 3.02 µM; IC50 (GluA1/2; [4]): 3.05 µM; Amplitude, applying glutamate alone after compound (GluA1/2): 575±35 pA
COc1cc(N)ccc1C1=NNC(=O)Cc2cc3c(cc21)OCO3 [2,3-BDZ-2, 1-(2-Methoxy-4-aminophenyl)-7,8-(methylenedioxy)-3,5-dihydro-4H-2,3-benzodiazepin-4-one] | 52±7.0 | 10.28±0.6 | 4.8 ± 0.5 | 1.7 ± 0.08 | 3.47 | 3.45 | 532±26 | 93±10.0 | 9.82±0.7 | 3.6 ± 0.3 | 1.8 ± 0.1 | 3.47 | 3.51 | 914±40 | approximately 10 fold | nearly doubles | 127±12.0 | 10.42±0.8 | 5.1 ± 0.4 | 1.6 ± 0.05 | Reduction in the desensitization rate of the investigated subunits (AMPA receptor subunits; 500 ms glutamate): 1–2 fold; IC50 (GluA2; [3]): 3.39 µM; IC50 (GluA2; [4]): 3.36 µM; Amplitude, applying glutamate alone after compound (GluA2): 1310±42 pA; Amplitude with compound (GluA1/2; -60 mV, pH 7.4, 22 °C): 53±3.0 pA; A/AI (current amplitude ratio without/with compound) (GluA1/2; 16 µM compound): 9.91±0.6; t deact (weighted deactivation time constant) (GluA1/2): 3.9 ± 0.4 ms; t des (weighted desensitization time constant) (GluA1/2): 3.8 ± 0.3 ms; IC50 (GluA1/2; [3]): 3.39 µM; IC50 (GluA1/2; [4]): 3.43 µM; Amplitude, applying glutamate alone after compound (GluA1/2): 523±33 pA
